Columns and labels:
Format in all cases: biochemical
T Cell = target: T1, T Cell (Homo sapiens, UniProt P17706); assay: FRET phosphatase assay, T Cell
T1 sequence (P17706 1-415): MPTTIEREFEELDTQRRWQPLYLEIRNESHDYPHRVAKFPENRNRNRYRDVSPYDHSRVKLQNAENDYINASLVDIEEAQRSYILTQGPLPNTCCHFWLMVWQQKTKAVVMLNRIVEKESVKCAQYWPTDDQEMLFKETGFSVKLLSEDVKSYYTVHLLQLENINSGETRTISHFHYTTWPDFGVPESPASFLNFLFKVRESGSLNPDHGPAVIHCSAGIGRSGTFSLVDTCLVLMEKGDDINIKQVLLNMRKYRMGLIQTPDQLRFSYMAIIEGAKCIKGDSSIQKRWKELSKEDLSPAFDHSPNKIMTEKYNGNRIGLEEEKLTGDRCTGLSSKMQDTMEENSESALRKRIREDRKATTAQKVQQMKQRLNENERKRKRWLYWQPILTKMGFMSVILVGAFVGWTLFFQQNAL
Description: (§1) For the enzyme activity assay, 2.5 μl of compound, 12.5 μl of enzyme, and 10 μl of substrate (separated by air gaps) are added to columns 3 through 24 by the Biomek FX in a single dispense. After the dispense, the tips are washed with DMSO and water for re-use between each quadrant. Once the assay plates are set up, they are incubated at 27° C. for 45 minutes. Then 20 μl of detection buffer is added to stop the reaction and to allow the Europium antibody (Eu-Ab) and streptavidin-APC to bind to the substrate.
(§2) The plates are then placed in the plate reader, an Analyst HT. Excitation light at 360 nm is used to excite the Europium antibody with an emission at 620 nm. Fluorescence resonance energy transfer (FRET) from Eu-Ab to APC will only occur when they are in close proximity. Therefore, when an APC emission is observed at 665 nm the enzyme has been inhibited from removing the phosphate group from the substrate. The FRET assay is time-resolved (TR), where there is a delay between excitation light and collection of emission signals. This reduces the amount of stray light created by short-lived fluorescing molecules. The Analyst HT measures APC and Europium emission signals and calculates the ratio between the two intensities. Typical intensities for the Europium is ˜2000 and APC is ˜600.
(§3) The following compounds were tested by FRET against the listed phosphatases, and the IC50 were obtained. […]

PTPMEG = target: T2, PTPMEG (Homo sapiens, UniProt P29074); assay: TR-FRET phosphatase activity assay, PTPMEG
T2 construct: Asp-Ser-6xHis (N); made in house; host or cells: E. coli BL21(DE3)
T2 sequence (P29074 655-911 limits assumed): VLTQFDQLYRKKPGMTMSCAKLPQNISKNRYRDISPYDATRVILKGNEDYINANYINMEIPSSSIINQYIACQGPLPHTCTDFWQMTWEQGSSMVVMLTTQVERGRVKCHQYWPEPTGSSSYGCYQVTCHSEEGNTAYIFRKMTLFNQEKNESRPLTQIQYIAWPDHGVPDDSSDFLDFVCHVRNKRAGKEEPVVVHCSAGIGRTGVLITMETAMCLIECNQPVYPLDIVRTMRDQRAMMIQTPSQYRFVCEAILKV
Description: Expression and Purification of PTPMEG The DNA sequence encoding the C-terminal 326 residues of PTPMEG (phosphatase domain) was subcloned into the pET-17b vector (Novagen) between the Ndel and Xhol restriction sites. An N-terminal tag consisting of Asp-Ser-6×His was incorporated at the beginning of the protein sequence. Protein expression was performed in BL21(DE3) cells at 37° C. with a 4 hour 0.5 mM IPTG induction. The cells were harvested by centrifugation and stored at −80° C. until needed for protein purification. Protein purification consisted of cell lysis by sonication, immobilized metal affinity chromatography (IMAC) on a Ni^2+-NTA column (Qiagen), followed by hydrophobic interaction chromatography (HIC) on a phenyl sepharose column (Amersham Pharmacia Biotech) and/or ion exchange chromatography (IEC) on a Q sepharose column (Amersham Pharmacia Biotech). The purified 38.3 kDa protein was buffer exchanged into 50 mM HEPES, pH 7.5 and stored at −80° C.
Phosphatase Buffer: 50 mm HEPES, pH 8; 1 mM DDT; 2 mM EDTA; 0.01% Brij solution; 10 mM MgCl2. […]
The plates are then placed in the plate reader, an Analyst HT. […] Fluorescence resonance energy transfer (FRET) from Eu-Ab to APC will only occur when they are in close proximity. […]

YOP51 = YOP51 (Yersinia enterocolitica, UniProt P15273); assay: FRET phosphatase assay, YOP51
Sequence of YOP51 (P15273 whole entry): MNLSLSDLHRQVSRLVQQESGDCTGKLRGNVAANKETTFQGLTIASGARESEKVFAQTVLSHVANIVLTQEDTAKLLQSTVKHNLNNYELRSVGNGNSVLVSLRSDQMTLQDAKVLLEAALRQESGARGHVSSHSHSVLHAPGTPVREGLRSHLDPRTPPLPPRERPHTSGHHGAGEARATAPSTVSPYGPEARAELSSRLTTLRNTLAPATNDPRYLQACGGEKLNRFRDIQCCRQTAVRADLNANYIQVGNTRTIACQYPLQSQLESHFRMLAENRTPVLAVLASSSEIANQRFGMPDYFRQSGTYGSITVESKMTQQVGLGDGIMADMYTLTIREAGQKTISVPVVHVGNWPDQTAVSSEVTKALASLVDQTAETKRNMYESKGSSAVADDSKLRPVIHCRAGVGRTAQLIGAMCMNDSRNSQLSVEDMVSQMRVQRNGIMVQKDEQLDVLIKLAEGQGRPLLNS
Description: as §1, §2, §3

PTPIB = target: T3, PTPIB (Homo sapiens, UniProt P18031); assay: FRET phosphatase assay, PTPIB
T3 sequence (P18031 1-435): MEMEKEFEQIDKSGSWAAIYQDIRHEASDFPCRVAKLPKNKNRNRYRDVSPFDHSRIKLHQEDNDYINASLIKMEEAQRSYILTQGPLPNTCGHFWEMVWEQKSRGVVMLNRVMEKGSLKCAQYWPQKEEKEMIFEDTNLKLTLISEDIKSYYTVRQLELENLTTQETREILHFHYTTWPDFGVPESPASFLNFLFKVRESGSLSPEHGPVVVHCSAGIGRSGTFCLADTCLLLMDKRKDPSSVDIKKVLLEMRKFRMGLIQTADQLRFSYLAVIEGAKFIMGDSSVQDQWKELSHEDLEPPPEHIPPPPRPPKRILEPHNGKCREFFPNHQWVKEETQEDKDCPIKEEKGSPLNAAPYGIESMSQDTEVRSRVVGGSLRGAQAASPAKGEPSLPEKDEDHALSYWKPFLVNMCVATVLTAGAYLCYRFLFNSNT
Description: as §1, §2, §3

## CCOC(=O)C(=CC1=C/C(=C/N(C)C)C(=O)O1)C(=O)OCC [AGY- 0046293]
T Cell
  IC50: 6720 µM
PTPMEG
  IC50: 0.32 µM
YOP51
  IC50: 4.18 µM
PTPIB
  IC50: 41.1 µM

Reference: US20050266509A1, “Interaction of NMDA receptor with protein tyrosine phosphatase” (AGY Therapeutics, Inc., priority 2003, published 2005)
